Measured values from patent US20240270821A1, “GIP/GLP1/GCG TRI-RECEPTOR AGONISTS AND USES THEREOF” (priority 2023, published 2024).
Where two headings read alike, the source gives them in different places. Starred links: 1 amine or outer side, 2 acyl side, 3 side chain; linkers in the order of their positions; H or OH if unused. Non-standard residues stand in square brackets, D forms with d. Residues, ends and D or L forms follow the SMILES beside them. Groups on a side chain read outwards from the residue. No end group written: not given here. *: point of attachment. C20 diacid = O=C(O)CCCCCCCCCCCCCCCCCCC(=O)*; C18 diacid = O=C(O)CCCCCCCCCCCCCCCCC(=O)*; αMePhe(2-F) = C[C@](N)(Cc1ccccc1F)C(=O)O; γGlu = O=C(O)[C@H](CCC(=O)[*:2])N[*:1]; αMe4Pal = C[C@](N)(Cc1ccncc1)C(=O)O; αMeY = C[C@](N)(Cc1ccc(O)cc1)C(=O)O; 4Pal = N[C@@H](Cc1ccncc1)C(=O)O; αMeL = CC(C)C[C@](C)(N)C(=O)O; αMeS = C[C@](N)(CO)C(=O)O; Orn = NCCC[C@H](N)C(=O)O; AEEA = NCCOCCOCC(=O)O; Aib = CC(C)(N)C(=O)O

How the values were obtained:
Type in all cases: cell-based
hGLP-1R [1] = target: T1, hGLP-1R (Homo sapiens, UniProt P43220); experiment: Functional cAMP activity in the presence of 1% HSA; settings: read-out: cAMP Rel EC50, hGLP-1R
human GcgR = human GcgR (Homo sapiens, UniProt P47871); experiment: Functional cAMP activity in the presence of 1% HSA; settings: read-out: cAMP Rel EC50, hGcgR
hGIPR [2] = target: T2, hGIPR (Homo sapiens, UniProt P48546); experiment: Functional cAMP activation in the presence of 0.1% casein (no HSA); settings: read-out: Relative cAMP EC50, hGIPR;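 note: intracellular cAMP rise after 30 min at 37 °C read by HTRF against a standard curve, scaled between buffer alone (0%) and top control ligand concentration (100%), four-parameter fit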
T2 sequence (P48546 22-466): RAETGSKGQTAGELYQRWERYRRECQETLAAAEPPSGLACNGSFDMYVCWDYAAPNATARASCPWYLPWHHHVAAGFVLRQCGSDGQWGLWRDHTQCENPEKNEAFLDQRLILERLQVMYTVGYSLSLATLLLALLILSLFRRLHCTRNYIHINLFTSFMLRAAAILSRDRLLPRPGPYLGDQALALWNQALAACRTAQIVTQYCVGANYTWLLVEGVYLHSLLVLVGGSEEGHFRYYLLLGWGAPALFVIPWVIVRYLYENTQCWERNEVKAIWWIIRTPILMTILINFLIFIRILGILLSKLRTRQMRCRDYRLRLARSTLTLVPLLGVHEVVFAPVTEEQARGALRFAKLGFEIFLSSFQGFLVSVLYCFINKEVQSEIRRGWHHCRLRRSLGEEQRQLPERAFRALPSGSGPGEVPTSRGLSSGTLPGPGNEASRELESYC

hGIPR [3] = target: T2, hGIPR; experiment: Functional cAMP activity in the presence of 1% HSA; settings: read-out: cAMP Rel EC50, hGIPR
hGLP-1R [4] = target: T1, hGLP-1R; experiment: Functional cAMP activation in the presence of 0.1% casein (no HSA); settings: read-out: Relative cAMP EC50, hGLP-1R;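 for Relative cAMP EC50, hGLP-1R: intracellular cAMP rise after 30 min at 37 °C read by HTRF, normalized between buffer only (0%) and maximal control ligand (100%), four-parameter variable-slope fit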;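 for Relative cAMP EC50, hGcgR: intracellular cAMP rise after 30 min at 37 °C, read by HTRF against a cAMP standard curve, scaled from buffer only (0%) to maximal control ligand response (100%)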
hGcgR = hGcgR (Homo sapiens, UniProt P47871); experiment: as above; settings: read-out: Relative cAMP EC50, hGcgR;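 note: intracellular cAMP rise after 30 min at 37 °C, read by HTRF against a cAMP standard curve, scaled from buffer only (0%) to maximal control ligand response (100%)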
[5] = in the presence of 0.1% casein (no HSA), geometric mean

T1 sequence (P43220 24-463): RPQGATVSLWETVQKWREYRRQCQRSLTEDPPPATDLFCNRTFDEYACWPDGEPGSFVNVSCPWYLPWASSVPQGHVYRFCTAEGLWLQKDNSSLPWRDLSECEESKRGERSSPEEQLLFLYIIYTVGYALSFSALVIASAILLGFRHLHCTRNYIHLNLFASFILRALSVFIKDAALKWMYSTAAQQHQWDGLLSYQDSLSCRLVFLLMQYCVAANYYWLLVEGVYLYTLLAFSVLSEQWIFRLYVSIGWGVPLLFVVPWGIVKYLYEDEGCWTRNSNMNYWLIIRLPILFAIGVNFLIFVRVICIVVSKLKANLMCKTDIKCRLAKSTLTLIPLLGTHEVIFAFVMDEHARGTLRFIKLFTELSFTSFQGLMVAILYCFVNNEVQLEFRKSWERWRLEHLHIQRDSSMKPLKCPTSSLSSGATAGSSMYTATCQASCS
Sequence of human GcgR (P47871 26-477): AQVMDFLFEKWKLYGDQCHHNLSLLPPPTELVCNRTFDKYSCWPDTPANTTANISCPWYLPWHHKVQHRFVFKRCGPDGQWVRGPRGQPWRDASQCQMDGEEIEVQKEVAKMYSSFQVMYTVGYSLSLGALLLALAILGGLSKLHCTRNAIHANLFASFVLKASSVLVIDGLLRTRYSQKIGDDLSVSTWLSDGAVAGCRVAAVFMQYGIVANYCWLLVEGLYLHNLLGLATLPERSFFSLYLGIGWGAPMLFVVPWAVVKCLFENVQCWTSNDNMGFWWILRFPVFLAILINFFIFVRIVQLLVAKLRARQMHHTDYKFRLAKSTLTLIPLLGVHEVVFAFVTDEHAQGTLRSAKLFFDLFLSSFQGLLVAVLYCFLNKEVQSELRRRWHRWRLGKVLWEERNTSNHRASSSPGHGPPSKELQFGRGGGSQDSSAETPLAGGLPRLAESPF
Sequence of hGcgR (P47871 26-477): as above

| Molecule | EC50 (hGLP-1R [1]) | EC50 (human GcgR) | EC50 (hGIPR [2]) | EC50 (hGIPR [3]) | EC50 (hGLP-1R [4]) | EC50 (hGcgR) | EC50 (hGIPR [2]; [5]) | EC50 (hGLP-1R [4]; [5]) | EC50 (hGcgR; [5]) |
| --- | --- | --- | --- | --- | --- | --- | --- | --- | --- |
| CC[C@H](C)[C@H](NC(=O)[C@H](Cc1ccccc1)NC(=O)[C@H](C)NC(=O)C(C)(C)NC(=O)[C@H](CCC(N)=O)NC(=O)[C@H](C)NC(=O)[C@H](CCCCNC(=O)CC[C@H](NC(=O)CC[C@H](NC(=O)CCCCCCCCCCCCCCCCC(=O)O)C(=O)O)C(=O)O)NC(=O)[C@H](CCCCN)NC(=O)[C@H](CC(=O)O)NC(=O)[C@H](CC(C)C)NC(=O)[C@H](CC(C)C)NC(=O)[C@@H](NC(=O)[C@H](CO)NC(=O)[C@H](Cc1ccc(O)cc1)NC(=O)[C@H](CC(=O)O)NC(=O)[C@H](CO)NC(=O)[C@@H](NC(=O)[C@](C)(Cc1ccccc1F)NC(=O)[C@@H](NC(=O)CNC(=O)[C@H](CCC(N)=O)NC(=O)C(C)(C)NC(=O)[C@@H](N)Cc1c[nH]cn1)[C@@H](C)O)[C@@H](C)O)[C@@H](C)CC)C(=O)N[C@@H](CCC(=O)O)C(=O)N[C@@H](Cc1ccc(O)cc1)C(=O)N[C@@H](CC(C)C)C(=O)N[C@@H](CCC(=O)O)C(=O)N[C@@H](CCC(=O)O)C(=O)NCC(=O)NCC(=O)N1CCC[C@H]1C(=O)N[C@@H](CO)C(=O)N[C@@H](CO)C(=O)NCC(=O)N[C@@H](C)C(=O)N1CCC[C@H]1C(=O)N1CCC[C@H]1C(=O)N1CCC[C@H]1C(=O)N[C@@H](CO)C(N)=O [Example 426] (H-H[Aib]QGT[αMePhe(2-F)]TSDYSILLDKK([γGlu-γGlu-C18 diacid])AQ[Aib]AFIEYLEEGGPSSGAPPPS-NH2) | 16.6 nM | 740 nM | 0.079 nM | 29.8 nM | 0.139 nM | 4.33 nM | – | – | – |
| H-Y[Aib]QGTFTSDFS[Orn][αMeL]LDKK([AEEA-γGlu-C20 diacid])AQ[Aib]AFIEYLLAGGPSSGEPPPEGE-NH2 [Example 102] | 1060 nM | 2710 nM | – | 159 nM | – | – | 0.587 nM | 3.35 nM | 9.75 nM |
| H-Y[Aib]QGTFTSDFS[Orn][αMeL]LDKK([AEEA-γGlu-C20 diacid])AQ[Aib]AFIEYLLE[Aib]GPSSGAPPPSEG-NH2 [Example 61] | 704 nM | 1310 nM | – | 55.2 nM | – | – | 0.122 nM | 2.05 nM | 3.57 nM |
| H-Y[Aib]QGTFTSD[4Pal]S[Orn][αMeL]LDKK([AEEA-γGlu-γGlu-C18 diacid])AQ[αMe4Pal]AFIE[αMe4Pal]LIE[Aib]GPSSGEPPPSGSE-NH2 [Example 988] | 743 nM | 320 nM | – | 11.8 nM | – | – | 0.198 nM | 9.5 nM | 2.52 nM |
| H-Y[Aib]QGTFTSD[4Pal]S[Orn][αMeL]LDKK([γGlu-γGlu-C18 diacid])AQ[αMe4Pal]AFIE[αMeY]LIEGGPSSGAPPPSGSEE-NH2 [Example 967] | 345 nM | 508 nM | – | 39.5 nM | – | – | 0.205 nM | 1.75 nM | 1.94 nM |
| CC[C@H](C)[C@H](NC(=O)[C@H](Cc1ccccc1)NC(=O)[C@H](CCCN)NC(=O)C(C)(C)NC(=O)[C@H](CCC(N)=O)NC(=O)[C@H](C)NC(=O)[C@H](CCCCNC(=O)CC[C@H](NC(=O)CC[C@H](NC(=O)CCCCCCCCCCCCCCCCC(=O)O)C(=O)O)C(=O)O)NC(=O)[C@H](CCCN)NC(=O)[C@H](CC(=O)O)NC(=O)[C@H](CC(C)C)NC(=O)[C@](C)(CC(C)C)NC(=O)[C@@H](NC(=O)[C@H](CO)NC(=O)[C@H](Cc1ccncc1)NC(=O)[C@H](CC(=O)O)NC(=O)[C@H](CO)NC(=O)[C@@H](NC(=O)[C@](C)(Cc1ccccc1F)NC(=O)[C@@H](NC(=O)CNC(=O)[C@H](CCC(N)=O)NC(=O)C(C)(C)NC(=O)[C@@H](N)Cc1ccc(O)cc1)[C@@H](C)O)[C@@H](C)O)[C@@H](C)CC)C(=O)N[C@H](CCC(=O)O)C(=O)N[C@@](C)(Cc1ccc(O)cc1)C(=O)N[C@@H](CC(C)C)C(=O)N[C@@H](CC(C)C)C(=O)N[C@@H](CCC(=O)O)C(=O)NCC(=O)NCC(=O)N1CCC[C@H]1C(=O)N[C@@H](CO)C(=O)N[C@@H](CO)C(=O)NC(C)(C)C(=O)N[C@@H](CCC(=O)O)C(=O)N1CCC[C@H]1C(=O)N1CCC[C@H]1C(=O)N1CCC[C@H]1C(=O)N[C@@H](CCC(=O)O)C(N)=O [Example 373] (H-Y[Aib]QGT[αMePhe(2-F)]TSD[4Pal]SI[αMeL]LD[Orn]K([γGlu-γGlu-C18 diacid])AQ[Aib][Orn]FI[dE][αMeY]LLEGGPSS[Aib]EPPPE-NH2) | 54.5 nM | 666 nM | – | 1.97 nM | – | – | 0.0183 nM | 0.392 nM | 4.48 nM |
| H-Y[Aib]QGTFTSDFSK[αMeL]LDKK([AEEA-γGlu-C20 diacid])AQ[Aib]AFIEYLLEGGPSSGEPPPGEG[AEEA]-NH2 [Example 54] | 1300 nM | 1940 nM | – | 168 nM | – | – | 0.502 nM | 3.95 nM | 3.77 nM |
| H-Y[Aib]QGT[αMePhe(2-F)]TSD[4Pal]SI[αMeL]LDKK([γGlu-γGlu-C18 diacid])AQ[Aib]AFIEYLEEGGPSSGAPPPSGEGE-NH2 [Example 623] | 62.2 nM | 832 nM | 0.0224 nM | 1.48 nM | 0.907 nM | 7.94 nM | – | – | – |
| Y[Aib]QGTFTSD[4Pal]SQ[αMeL]LDKK([dE-γGlu-dE-C18 diacid])AQ[αMe4Pal]AFIEYLIE[Aib]GPSSGAPPPSGS-NH2 [Example 923] | 870 nM | 1840 nM | – | 18.5 nM | – | – | 0.123 nM | 6.23 nM | 9.1 nM |
| H-Y[Aib]QGTFTSD[4Pal]SK[αMeL]LDKK([AEEA-γGlu-C18 diacid])AQ[Aib]AFIEYLIE[Aib]GPSSGAPPPSGSEEE-NH2 [Example 903] | 387 nM | 1630 nM | – | 31.2 nM | – | – | 0.277 nM | 2.7 nM | 12.9 nM |
| H-Y[Aib]QGTFTSDYSK[αMeL]LDKK([AEEA-γGlu-C20 diacid])AQQAFVQWLIE[dA]GPSSGEPPPSEG-NH2 [Example 342] | 62 nM | 2130 nM | – | 71.3 nM | – | – | 0.347 nM | 0.419 nM | 10.2 nM |
| CC[C@H](C)[C@H](NC(=O)[C@H](CC(C)C)NC(=O)[C@H](Cc1ccc(O)cc1)NC(=O)[C@H](CCC(=O)O)NC(=O)[C@@H](NC(=O)[C@H](Cc1ccccc1)NC(=O)[C@H](CCC(=O)O)NC(=O)[C@](C)(Cc1ccncc1)NC(=O)[C@H](CCC(N)=O)NC(=O)[C@H](C)NC(=O)[C@H](CCCCNC(=O)CC[C@H](NC(=O)CC[C@H](NC(=O)CCCCCCCCCCCCCCCCC(=O)O)C(=O)O)C(=O)O)NC(=O)[C@H](CCCN)NC(=O)[C@H](CC(=O)O)NC(=O)[C@H](CC(C)C)NC(=O)[C@](C)(CC(C)C)NC(=O)[C@H](CCCN)NC(=O)[C@H](CO)NC(=O)[C@H](Cc1ccncc1)NC(=O)[C@H](CC(=O)O)NC(=O)[C@H](CO)NC(=O)[C@@H](NC(=O)[C@H](Cc1ccccc1)NC(=O)[C@@H](NC(=O)CNC(=O)[C@H](CCC(N)=O)NC(=O)C(C)(C)NC(=O)[C@@H](N)Cc1ccc(O)cc1)[C@@H](C)O)[C@@H](C)O)[C@@H](C)CC)C(=O)N[C@@H](C)C(=O)NCC(=O)NCC(=O)N1CCC[C@H]1C(=O)N[C@@H](CO)C(=O)N[C@@H](CO)C(=O)NCC(=O)N[C@@H](C)C(=O)N1CCC[C@H]1C(=O)N1CCC[C@H]1C(=O)N1CCC[C@H]1C(=O)N[C@@H](CO)C(=O)NCC(=O)N[C@@H](CO)C(=O)N[C@@H](CCC(=O)O)C(=O)N[C@@H](CCC(=O)O)C(N)=O [Example 1001] | 295 nM | 1170 nM | – | 20 nM | – | – | 0.4 nM | 4.59 nM | 22.5 nM |
| H-Y[Aib]QGTFTSD[4Pal][αMeS]Q[αMeL]LD[Orn]K([dE-γGlu-C18 diacid])AQ[αMe4Pal]QFIQ[αMeY]LIAGGPSSGEPPPSGGGE-NH2 [Example 1133] | 47.8 nM | 216 nM | – | 4.24 nM | – | – | 0.0719 nM | 0.768 nM | 2.95 nM |
| Y[Aib]QGTFTSD[4Pal][αMeS]Q[αMeL]LD[Orn]K([dE-γGlu-C18 diacid])AQ[αMe4Pal]QFIQ[αMeY]LIEGGPSSGEPPPSGGGE-NH2 [Example 1188] | 77.1 nM | 130 nM | – | 7.02 nM | – | – | 0.0914 nM | 1.01 nM | 1.16 nM |
